Measured values reported in patent US20250296938A1, “Compounds that Interact with the Ras Superfamily for the Treatment of Cancers, Inflammatory Diseases, Rasopathies, and Fibrotic Disease” (SHY Therapeutics, LLC, priority 2018, published 2025).
Like-named read-outs stand apart in the source and are kept apart here.

Assays:
Test in all cases: Ras GTP binding domain inhibition assay (Cy3-GTP/Cy5-GTP competition)
KRas G12D mutant = biological target: T1, KRas G12D mutant (Homo sapiens, UniProt P01116, G12D)
T1 construct: fused on or other part: His tag, used for capture on nickel-coated plates
Outline: (§1)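 His-tagged Ras immobilized on nickel-coated wells in Tris buffer (pH 7.4 or 7.0) with 1 mM MgCl2, 1 mM DTT, 1% DMSO. Compound (20 μM, or serial dilution for IC50) incubated 3 hours at room temperature, ± Sos (residues 556-1049) in final hour. Bound 100 nM Cy3-/Cy5-GTP read after 45 minutes and washing.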

Rac-1 = Rac-1 (Homo sapiens, UniProt P63000)
Outline: (§2)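 First, His-tagged protein is coated on nickel wells overnight at 4 °C. Next, compound (20 μM single point or serial dilution) is added for 3 h at room temperature, with or without Sos exchange factor in the last hour. Finally, 100 nM labelled GTP binds for 45 min and retained signal is measured.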

Rho-A = Rho-A (Homo sapiens, UniProt P61586)
Outline: as §2

KRas Q61H mutant = tested on: KRas Q61H mutant; design: species or system human; conditions: 20 μM
Outline: as §1

KRas wild type = tested on: KRas wild type; design: species or system human; conditions: 20 μM; for KRas wild type: % inh.: without SOS
Outline: as §1

KRas G12C mutant = tested on: KRas G12C mutant; design: species or system human; conditions: 20 μM
Outline: as §1

[1] = at 20 μM, with SOS, read-out: KRas G12D mutant + SOS: % inh.
[2] = at 20 μM, without SOS, read-out: KRas G12D mutant: % inh.
[3] = with SOS, read-out: Rac-1 + SOS: % inh.
[4] = without SOS, read-out: Rac-1: % inh.
[5] = with SOS, read-out: Rho-A + SOS: % inh.
[6] = without SOS, read-out: Rho-A: % inh.
[7] = 20 μM, with SOS, read-out: KRas G-12D mutant + SOS: % inh.
[8] = 20 μM, without SOS, read-out: KRas G12D mutant: % inh.

| inhibition at 20 µM (KRas G12D mutant; [1]) | inhibition at 20 µM (KRas G12D mutant; [2]) | inhibition at 20 µM (Rac-1; [3]) | inhibition at 20 µM (Rac-1; [4]) | inhibition at 20 µM (Rho-A; [5]) | inhibition at 20 µM (Rho-A; [6]) | inhibition at 20 µM (KRas G12D mutant; [7]) | inhibition at 20 µM (KRas G12D mutant; [8]) | KRas Q61H mutant + SOS: % inh. (KRas Q61H mutant; with SOS) | KRas Q61H mutant: % inh. (KRas Q61H mutant; without SOS) | KRas wild type + SOS: % inh. (KRas wild type; with SOS) | KRas wild type: % inh. (KRas wild type) | KRas G12C mutant + SOS: % inh. (KRas G12C mutant; with SOS) | KRas G12C mutant: % inh. (KRas G12C mutant; without SOS) | Compound | also measured |
| --- | --- | --- | --- | --- | --- | --- | --- | --- | --- | --- | --- | --- | --- | --- | --- |
| 1 to 25% | 0% | 0% | 0% | 51 to 75% | 1 to 25% | – | – | – | – | – | – | – | – | COCCCNc1nc(-c2nccn2C)nc2sc(-c3ccn(C)n3)c(-c3ccc(OC)cc3)c12 [drawing 1005] | – |
| 51 to 75% | 51 to 75% | 76 to 100% | 76 to 100% | 51 to 75% | 76 to 100% | – | – | – | – | – | – | – | – | COc1cccc(Cn2ccnc2-c2nc(O)c3scc(-c4ccc(OCC(C)C)nc4)c3n2)c1 [drawing 1035] | – |
| 26 to 50% | 26 to 50% | 51 to 75% | 51 to 75% | 76 to 100% | 51 to 75% | – | – | – | – | – | – | – | – | CO[C@H]1CC[C@@H](Nc2nc(-c3nccn3C)nc(C(=O)N3CCc4c(O)cccc4C3)c2C)C1 [drawing 1036] | – |
| 51 to 75% | 51 to 75% | 76 to 100% | 51 to 75% | 51 to 75% | 0% | – | – | – | – | – | – | – | – | COC1CCN(c2nc(-c3nccn3C)nc3sc(-c4ccccc4Cl)c(-c4cscn4)c23)C1 (stereo not shown) [drawing 984] | – |
| 51 to 75% | 26 to 50% | 26 to 50% | 26 to 50% | 1 to 25% | 1 to 25% | – | – | – | – | – | – | – | – | COc1nscc1-c1sc2nc(-c3nccn3C)nc(N3CCC(OC)C3)c2c1-c1ccccc1 (stereo not shown) [drawing 975] | – |
| – | – | – | – | – | – | 26 to 50% | 26 to 50% | A (1-25% inhibition) | B (26-50% inhibition) | A (1-25% inhibition) | C (51-75% inhibition) | A (1-25% inhibition) | B (26-50% inhibition) | O=C(c1nc(-c2ccccn2)nc(O)c1O)N1CCOCC1 [drawing 800] | – |
| – | – | – | – | – | – | 26 to 50% | 51 to 75% | C (51-75% inhibition) | C (51-75% inhibition) | B (26-50% inhibition) | C (51-75% inhibition) | B (26-50% inhibition) | C (51-75% inhibition) | CC(C)NC(=O)c1nc(-c2nccn2C)nc(O)c1O [drawing 830] | – |
| – | – | – | – | – | – | 26 to 50% | 51 to 75% | C (51-75% inhibition) | C (51-75% inhibition) | B (26-50% inhibition) | C (51-75% inhibition) | B (26-50% inhibition) | C (51-75% inhibition) | Cn1ccnc1-c1nc(O)c(O)c(C(=O)NC2CCCC2)n1 [drawing 827] | – |
| – | – | – | – | – | – | 51 to 75% | 76 to 100% | C (51-75% inhibition) | C (51-75% inhibition) | C (51-75% inhibition) | D (76-100% inhibition) | D (76-100% inhibition) | C (51-75% inhibition) | COCCn1ccnc1-c1nc(O)c2scc(-c3ccccn3)c2n1 [drawing 852] | – |
| – | – | – | – | – | – | 51 to 75% | 51 to 75% | D (76-100% inhibition) | D (76-100% inhibition) | D (76-100% inhibition) | C (51-75% inhibition) | D (76-100% inhibition) | B (26-50% inhibition) | COCC1CN(c2nc(-c3nccn3C)nc3sc(-c4cccc(OC)c4F)c(-c4ccc(OC)cc4)c23)C1 [drawing 805] | – |
| – | – | – | – | – | – | – | – | – | – | – | – | – | – | CO[C@H]1C[C@H](Nc2nc(-c3nccn3C)nc3sc(-c4ccn(C)n4)c(-c4ccccc4)c23)C1 [drawing 906] | inhibition at 20 µM (KRas G12D mutant; 20 μM, with SOS (Table 7A), read-out: KRas G12D mutant + SOS: % inh.): 51 to 75%; inhibition at 20 µM (KRas G12D mutant; 20 μM, without SOS (Table 7A), read-out: KRas G12D mutant: % inh.): 26 to 50%; KRas Q61H mutant + SOS: % inh. (KRas Q61H mutant; with SOS (Table 7A)): D (76-100% inhibition); KRas Q61H mutant: % inh. (KRas Q61H mutant; without SOS (Table 7A)): C (51-75% inhibition); KRas wild type + SOS: % inh. (KRas wild type; with SOS (Table 7A)): D (76-100% inhibition); KRas wild type % inh. (KRas wild type; without SOS (Table 7A)): C (51-75% inhibition); KRas G12C mutant + SOS: % inh. (KRas G12C mutant; with SOS (Table 7A)): D (76-100% inhibition); KRas G12C mutant: % inh. (KRas G12C mutant; without SOS (Table 7A)): C (51-75% inhibition) |
| – | – | – | – | – | – | 1 to 25% | 1 to 25% | A (1-25% inhibition) | A (1-25% inhibition) | A (1-25% inhibition) | A (1-25% inhibition) | A (1-25% inhibition) | A (1-25% inhibition) | COC1CCN(c2nc(-c3nccn3C)nc3sc(-c4ccc(N)nc4C)c(-c4ccccc4)c23)C1.Cl (stereo not shown) | – |
| – | – | – | – | – | – | 1 to 25% | 1 to 25% | C (51-75% inhibition) | B (26-50% inhibition) | B (26-50% inhibition) | A (1-25% inhibition) | B (26-50% inhibition) | A (1-25% inhibition) | COC1CCN(c2nc(-c3nccn3C)nc3sc(-c4ccn(C)n4)c(-c4ccccc4)c23)C1 (stereo not shown) [drawing 863] | – |
